Test results: patent publication US9795570B2, “Modulation of macrophage phenotype by emodin” (University of South Carolina, priority 2016, dated 2017)

Assays:
[1] = tested on: NFκB p65, STAT1, IRF5, STAT6, IRF4; test: Nuclear translocation of transcription factors (western blotting of nuclear fractions); format: cell-based, mouse; details: emodin 50 μM 24 h
Procedure: Following stimulation with IL4 or LPS+IFNγ with or without emodin for varying periods, macrophages were lysed with cell signaling lysis buffer (Millipore) for whole cell lysates. Cytoplasmic and nuclear extracts were prepared using the Epiquik Nuclear Extraction kit (Epigentek, Farmingdale, N.Y.). Total protein was separated on 4-20% Tris-glycine pre-cast gels (Pierce) and transferred onto Nitrocellulose membranes (Bio-Rad Life Science, Hercules, Calif.). The membranes were then probed with HRP conjugated secondary antibodies, and signals were detected using Pierce ECL Western Blotting Substrate (Pierce).

4T1 cells = test: Cell viability, LDH assay; format: cell-based, mouse; details: emodin 0-100 μM, 24-48 h
Procedure: (§1) Tumor cells (2×10^4 EO771 or 4T1 cells) were seeded into 96 well culture plates in DMEM with 10% FBS. The cells were incubated overnight at 37° C. The medium was then removed, and the cells were washed with phosphate-buffered saline (PBS). DMEM containing varying concentrations of emodin (0-100 μM) was then added to the cells in quadruplicate. Vehicle control contained an equal volume of DMSO. Plates of cells were then incubated for 24-48 h. After an indicated period, the viability of the cells was determined using a Lactate Dehydrogenase (LDH) Cytotoxicity Detection Kit (Clontech Mountain View, Calif.) according to the manufacturer's instructions. Briefly, the supernatant was removed from each well on the plate and placed in a new well on the same plate. An equal volume of cell lysis buffer (2% triton in DMEM) was then added to each well containing the cancer cells, and the cells were incubated at room temperature for 15 min. The reaction mixture was then added to each well (cell lysate plus supernatant) and incubated for 5 min before the stop solution was added. The absorbance was measured at 490 nm on a Spectra Max M5 Microplate Reader (Molecular Devices, Sunnyvale, Calif.). The percent viability was then calculated as the ratio of LDH in the cell lysate to the total amount of LDH in the lysate plus the supernatant. The viability of each group was compared to the control.

EO771 cells = test: Cell viability, LDH assay; format: cell-based, mouse; details: emodin 0-100 μM, 24-48 h
Procedure: as §1

[2] = tested on: mouse peritoneal macrophages; test: Whole genome microarray, macrophages stimulated with LPS/IFNγ; format: cell-based
Procedure: Three milliliters of 4% Thioglycolate solution was injected intraperitoneally into 8-12 week old C57BL/6 mice. Three days later, macrophages were collected by lavaging the peritoneal cavity with PBS. The cells were then resuspended in DMEM containing 10% FBS. After 2 h, non-adherent cells were washed away with PBS and the macrophages were cultured overnight in serum free DMEM. The macrophages were then treated with DMEM containing IL4 (10 ng/ml, BioAbChem Inc. Ladson, S.C.) or LPS (100 ng/ml, Sigma-Aldrich) and IFNγ (20 ng/ml, BioAbChem Inc) with or without emodin. Emodin was purchased from Nanjing Langze Medicine and Technology Co. Ltd (Nanjing, China) and dissolved in DMSO at a concentration of 10 mg/ml as a stock solution.
Microarray analysis was carried out as described previously, with a few alterations. Macrophages were stimulated with IL4 for 6 h or LPS+IFNγ for 24 h with or without emodin (50 μM). Samples were prepared in biological replicates of 4. Cells were lysed with Qiazol and RNA was extracted using Qiagen's miRNeasy kit. Agilent's 2100 Bioanalyzer was used to determine the quality and quantity of the RNA. […] The RNA was amplified and labeled with Agilent's Low Input Quick Amp Labeling Kit (Agilent) according to the manufacturer's instructions. Labeled RNA was then purified using Qiagen's RNeasy Mini Kit (Qiagen, Valencia, Calif.) and dye incorporation and cRNA yield were assessed. Labeled samples were hybridized to Agilent Whole Mouse Genome Microarrays 8×60K (Agilent) using Agilent's Gene Expression Hybridization Kit (Agilent) according to the manufacturer's instructions. Microarray analysis was performed using an Agilent DNA Microarray Scanner System (Cat. # G2565CA).
For microarray analysis, data was extracted from images with Feature Extractor Software version 10.7.3.1 (Agilent); background correction using detrending algorithms was performed. Subsequently, background-corrected data was uploaded into GeneSpring GX version 11.5.1 for analysis. In this process, data was log 2 transformed, quantile normalized and baseline transformed using the median of all samples. […] Differentially expressed genes were determined by analysis of the data using the Mann-Whitney unpaired statistics. A cutoff p-value of 0.05 and a fold change cutoff value of 2.0 were used to filter the data. Pathway analysis was performed using Ingenuity Pathway Analysis software.

For `Cc1cc(O)c2c(c1)C(=O)c1cc(O)cc(O)c1C2=O` [emodin], the STAT6 nuclear translocation ([1]; IL4 stimulation) was “drastically inhibit”, the “nuclear IRF4” value ([1]; IL4 stimulation) was “inhibited” and the “NFκB p65 nuclear translocation” value ([1]; LPS/IFNγ stimulation) was “drastically inhibit”. The “STAT1 and IRF5 nuclear translocation” value ([1]; LPS/IFNγ stimulation) was “inhibited”, the “concentration from which a slight effect on cell viability starts” value (4T1 cells) was ≥ 25 µM and the “concentration from which a slight effect on cell viability starts” value (EO771 cells) was ≥ 25 µM. The “fold reduction of LPS/IFNγ induced expression” value ([2]; CD86, microarray, emodin 50 μM) was 7.74 fold, the “fold change of expression under LPS/IFNγ stimulation” value ([2]; CXCL2, microarray) was −10.31 fold and the “fold change of expression under LPS/IFNγ stimulation” value ([2]; CXCL10, microarray) was −2.01 fold. The “fold reduction of LPS/IFNγ induced expression” value ([2]; H2-Oa, microarray, emodin 50 μM) was 3.85 fold, the “fold reduction of LPS/IFNγ induced expression” value ([2]; H2-Ob, microarray, emodin 50 μM) was 6.42 fold and the “fold reduction of LPS/IFNγ induced expression” value ([2]; IL1β, microarray, emodin 50 μM) was 13.64 fold. For the same molecule, the “fold reduction of LPS/IFNγ induced expression” value ([2]; IL6, microarray, emodin 50 μM) was 3.25 fold, the “genes changed by emodin in both groups” value ([2]; LPS/IFNγ and IL4 stimulation, microarray) was 1,575 genes and the “genes whose expression was changed by emodin in at least one of the conditions” value ([2]; LPS/IFNγ or IL4 stimulation, microarray) was ~6,500 genes. For the same molecule, the “genes on which emodin had inverse effects under the two different stimuli” value ([2]; LPS/IFNγ vs IL4, microarray) was 86 genes, the “fold reduction of LPS/IFNγ induced expression” value ([2]; MMP2, microarray, emodin 50 μM) was 11.86 fold and the “fold reduction of LPS/IFNγ induced expression” value ([2]; MMP9, microarray, emodin 50 μM) was 28.87 fold. The “fold increase of expression under LPS/IFNγ stimulation” value ([2]; Mrc1, microarray) was 8.72 fold, the “fold change of expression under LPS/IFNγ stimulation” value ([2]; TNFα, microarray) was −2.47 fold and the “fold reduction of LPS/IFNγ induced expression” value ([2]; TNFα, microarray, emodin 50 μM) was 2.01 fold. For the same molecule, the “fold increase of expression under LPS/IFNγ stimulation” value ([2]; YM1, microarray) was 2.04 fold, the “LPS/IFNγ responsive genes whose induced changes were attenuated” value ([2]; emodin 50 μM, LPS/IFNγ 24 h) was “about 31%” and the “Em + LPS vs. LPS/IFN (gene expression)” value ([2]; gene CCL2, microarray, LPS/IFNγ 24 h, emodin 50 μM) was −12.06. For the same molecule, the “Em + LPS vs. LPS/IFN (gene expression)” value ([2]; gene CCL5, microarray, LPS/IFNγ 24 h, emodin 50 μM) was −5.41, the “Em + LPS vs. LPS/IFN (gene expression)” value ([2]; gene CD86, microarray, LPS/IFNγ 24 h, emodin 50 μM) was −7.74 and the “Em + LPS vs. LPS/IFN (gene expression)” value ([2]; gene CXCL2, microarray, LPS/IFNγ 24 h, emodin 50 μM) was −2.47. For the same molecule, the “Em + LPS vs. LPS/IFN (gene expression)” value ([2]; gene CXCL3, microarray, LPS/IFNγ 24 h, emodin 50 μM) was −2.47, the “Em + LPS vs. LPS/IFN (gene expression)” value ([2]; gene CXCL10, microarray, LPS/IFNγ 24 h, emodin 50 μM) was −10.31 and the “Em + LPS vs. LPS/IFN (gene expression)” value ([2]; gene FPR2, microarray, LPS/IFNγ 24 h, emodin 50 μM) was −33.81. For the same molecule, the “Em + LPS vs. LPS/IFN (gene expression)” value ([2]; gene H2-Oa, microarray, LPS/IFNγ 24 h, emodin 50 μM) was −3.85, the “Em + LPS vs. LPS/IFN (gene expression)” value ([2]; gene H2-Ob, microarray, LPS/IFNγ 24 h, emodin 50 μM) was −6.42 and the “Em + LPS vs. LPS/IFN (gene expression)” value ([2]; gene IFIT1, microarray, LPS/IFNγ 24 h, emodin 50 μM) was −11.94. The “Em + LPS vs. LPS/IFN (gene expression)” value ([2]; gene IL1B, microarray, LPS/IFNγ 24 h, emodin 50 μM) was −13.64, the “Em + LPS vs. LPS/IFN (gene expression)” value ([2]; gene IL1RL1, microarray, LPS/IFNγ 24 h, emodin 50 μM) was −10.78 and the “Em + LPS vs. LPS/IFN (gene expression)” value ([2]; gene IL6, microarray, LPS/IFNγ 24 h, emodin 50 μM) was −3.25. The “Em + LPS vs. LPS/IFN (gene expression)” value ([2]; gene IL12A, microarray, LPS/IFNγ 24 h, emodin 50 μM) was −4.93, the “Em + LPS vs. LPS/IFN (gene expression)” value ([2]; gene IL12B, microarray, LPS/IFNγ 24 h, emodin 50 μM) was 2.47 and the “Em + LPS vs. LPS/IFN (gene expression)” value ([2]; gene IRF5, microarray, LPS/IFNγ 24 h, emodin 50 μM) was −2.11. For the same molecule, the “Em + LPS vs. LPS/IFN (gene expression)” value ([2]; gene IRF7, microarray, LPS/IFNγ 24 h, emodin 50 μM) was −4.20, the “Em + LPS vs. LPS/IFN (gene expression)” value ([2]; gene MMP2, microarray, LPS/IFNγ 24 h, emodin 50 μM) was −11.86 and the “Em + LPS vs. LPS/IFN (gene expression)” value ([2]; gene MMP9, microarray, LPS/IFNγ 24 h, emodin 50 μM) was −28.87. For the same molecule, the “Em + LPS vs. LPS/IFN (gene expression)” value ([2]; gene MYH3, microarray, LPS/IFNγ 24 h, emodin 50 μM) was −7.76, the “Em + LPS vs. LPS/IFN (gene expression)” value ([2]; gene Mrc1, microarray, LPS/IFNγ 24 h, emodin 50 μM) was 8.72 and the “Em + LPS vs. LPS/IFN (gene expression)” value ([2]; gene NOS2, microarray, LPS/IFNγ 24 h, emodin 50 μM) was −3.77. The “Em + LPS vs. LPS/IFN (gene expression)” value ([2]; gene PTGS2, microarray, LPS/IFNγ 24 h, emodin 50 μM) was −3.99, the “Em + LPS vs. LPS/IFN (gene expression)” value ([2]; gene RASGRP1, microarray, LPS/IFNγ 24 h, emodin 50 μM) was −8.52 and the “Em + LPS vs. LPS/IFN (gene expression)” value ([2]; gene SELL, microarray, LPS/IFNγ 24 h, emodin 50 μM) was −10.45. For the same molecule, the “Em + LPS vs. LPS/IFN (gene expression)” value ([2]; gene SOCS1, microarray, LPS/IFNγ 24 h, emodin 50 μM) was −5.34, the “Em + LPS vs. LPS/IFN (gene expression)” value ([2]; gene TLR4, microarray, LPS/IFNγ 24 h, emodin 50 μM) was −4.71 and the “Em + LPS vs. LPS/IFN (gene expression)” value ([2]; gene TNF, microarray, LPS/IFNγ 24 h, emodin 50 μM) was −2.01.
